Biological target: T1, full-length human Mineralocorticoid Receptor (MR) (Homo sapiens, UniProt P08235)
T1 construct: host or cells: PathHunter CHO-K1 cells
T1 sequence (P08235 1-984): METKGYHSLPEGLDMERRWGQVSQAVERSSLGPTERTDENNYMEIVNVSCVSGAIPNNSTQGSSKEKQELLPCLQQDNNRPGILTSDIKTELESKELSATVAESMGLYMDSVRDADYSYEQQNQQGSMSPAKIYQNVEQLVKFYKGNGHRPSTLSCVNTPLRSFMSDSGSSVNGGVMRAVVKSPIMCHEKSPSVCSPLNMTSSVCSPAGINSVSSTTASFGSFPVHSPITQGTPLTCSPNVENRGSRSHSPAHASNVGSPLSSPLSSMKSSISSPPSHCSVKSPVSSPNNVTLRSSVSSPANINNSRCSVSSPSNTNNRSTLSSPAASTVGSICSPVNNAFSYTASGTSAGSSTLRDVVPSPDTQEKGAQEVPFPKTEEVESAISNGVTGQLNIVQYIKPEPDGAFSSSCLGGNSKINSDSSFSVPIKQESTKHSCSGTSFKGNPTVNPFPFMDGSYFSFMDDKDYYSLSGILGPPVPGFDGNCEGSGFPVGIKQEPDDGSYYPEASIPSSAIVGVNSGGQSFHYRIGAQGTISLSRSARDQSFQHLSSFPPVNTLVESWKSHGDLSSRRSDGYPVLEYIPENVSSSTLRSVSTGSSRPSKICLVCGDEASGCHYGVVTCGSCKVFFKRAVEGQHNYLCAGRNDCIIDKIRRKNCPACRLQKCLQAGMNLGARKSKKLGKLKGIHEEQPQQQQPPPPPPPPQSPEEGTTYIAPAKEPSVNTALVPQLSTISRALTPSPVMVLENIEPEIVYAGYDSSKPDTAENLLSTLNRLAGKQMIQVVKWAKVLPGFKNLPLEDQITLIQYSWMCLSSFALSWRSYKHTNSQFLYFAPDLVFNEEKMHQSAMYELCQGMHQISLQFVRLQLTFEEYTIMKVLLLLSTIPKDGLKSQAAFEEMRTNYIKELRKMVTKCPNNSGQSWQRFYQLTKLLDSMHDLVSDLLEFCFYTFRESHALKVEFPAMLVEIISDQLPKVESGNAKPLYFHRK
Assay: human MR NH Pro assay (PathHunter Protein:Protein interaction assay), MR antagonist activity
Format: cell-based
Conditions: PathHunter CHO-K1 cells overexpressing human MR; aldosterone about 0.3 nM; 6 hours at 37° C.; luminescence; read-out: Primary Assay IP rating (IP = inflection point for a given dose-response titration curve)
Summary of the method: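 PathHunter enzyme-complementation assay in cells of full-length human MR recruitment of a coactivator peptide, run in antagonist mode against aldosterone at about 0.3 to 1.0 nM final. Compounds are in a 10-point, 1:3 series from a 4.4 mM top. Incubation is 6 h at 37° C, then detection reagent for 1 h at RT, with a luminescence read-out.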

| SMILES | IC50 [nM] |
| --- | --- |
| CCC(c1ccc(Cl)cc1)(C1CC1C#N)n1ncc2c(NS(C)(=O)=O)cccc21 (stereo not shown) [Compound 120, N-(1-(1-(4-chlorophenyl)-1-(2-cyanocyclopropyl)propyl)-1H-indazol-4-yl)methanesulfonamide] | < 100 |
| CCC(CC#N)(c1ccc(C(F)(F)F)cc1)n1ccc2c(NS(C)(=O)=O)cccc21 (stereo not shown) [Compound 126, N-(1-(1-cyano-2-(4-(trifluoromethyl)phenyl)butan-2-yl)-1H-indol-4-yl)methanesulfonamide] | < 100 |
| CCC(/C=C/C#N)(c1ccc(Cl)cc1)n1ccc2c(NS(C)(=O)=O)cccc21 (stereo not shown) [Compound 127, (E)-N-(1-(3-(4-chlorophenyl)-1-cyanopent-1-en-3-yl)-1H-indol-4-yl)methanesulfonamide] | < 100 |
| CCC(/C=C/C#N)(c1ccc(OC)cc1)n1ccc2c(NS(C)(=O)=O)cccc21 (stereo not shown) [Compound 128, (E)-N-(1-(1-cyano-3-(4-methoxyphenyl)pent-1-en-3-yl)-1H-indol-4-yl)methanesulfonamide] | < 100 |
| CCC(/C=C/C#N)(c1ccc(Cl)cc1)n1ncc2c(NS(C)(=O)=O)cccc21 (stereo not shown) [Compound 129, (E)-N-(1-(3-(4-chlorophenyl)-1-cyanopent-1-en-3-yl)-1H-indazol-4-yl)methanesulfonamide] | < 100 |
| CCC(/C=C/C#N)(c1ccc(Cl)cc1)n1ncc2c(NS(C)(=O)=O)cc(F)cc21 (stereo not shown) [Compound 130, (E)-N-(1-(3-(4-chlorophenyl)-1-cyanopent-1-en-3-yl)-6-fluoro-1H-indazol-4-yl)methanesulfonamide] | < 100 |
| CCC(/C(C)=C/C#N)(c1ccc(Cl)cc1)n1ccc2c(NS(C)(=O)=O)cccc21 (stereo not shown) [Compound 132, N-(1-(3-(4-Chlorophenyl)-1-cyano-2-methylpent-1-en-3-yl)-1H-indol-4-yl)methanesulfonamide] | < 100 |
| CCC(/C=C/C#N)(c1ccc(Cl)cc1)n1ncc2c(N)cccc21 (stereo not shown) [Compound 133, (E)-4-(4-amino-1H-indazol-1-yl)-4-(4-chlorophenyl)hex-2-enenitrile] | 100 to 500 |
| CCC(/C=C/C#N)(c1ccc(Cl)cc1)n1ncc2c(N)cc(F)cc21 (stereo not shown) [Compound 134, (E)-4-(4-amino-6-fluoro-1H-indazol-1-yl)-4-(4-chlorophenyl)hex-2-enenitrile] | 100 to 500 |
| CCC(/C=C/C#N)(c1ccc(Cl)cc1)n1ncc2c(N(C(=O)OC(C)(C)C)S(C)(=O)=O)cccc21 (stereo not shown) [Compound 135, (E)-tert-butyl 1-(3-(4-chlorophenyl)-1-cyanopent-1-en-3-yl)-1H-indazol-4-yl(methylsulfonyl) carbamate] | < 100 |
| CCC(/C=C/C#N)(c1ccc(Cl)cc1)n1ncc2c(N(S(C)(=O)=O)S(C)(=O)=O)cc(F)cc21 (stereo not shown) [Compound 136, (E)-N-(1-(3-(4-chlorophenyl)-1-cyanopent-1-en-3-yl)-6-fluoro-1H-indazol-4-yl)-N-(methylsulfonyl)methanesulfonamide] | < 100 |
| CCC(CCC#N)(c1ccc(OC)cc1)n1ccc2c(NS(C)(=O)=O)cccc21 (stereo not shown) [Compound 139, N-(1-(1-cyano-3-(4-methoxyphenyl)pentan-3-yl)-1H-indol-4-yl)methanesulfonamide] | < 100 |
| CCC(CCC#N)(c1ccccc1)n1ncc2c(NS(C)(=O)=O)cc(F)cc21 (stereo not shown) [Compound 144, N-(1-(1-cyano-3-phenylpentan-3-yl)-6-fluoro-1H-indazol-4-yl)methanesulfonamide] | < 100 |
| CCC(CCC#N)(c1ccc(Cl)cc1)n1ncc2c(NS(C)(=O)=O)cc(F)cc21 (stereo not shown) [Compound 145, N-(1-(3-(4-chlorophenyl)-1-cyanopentan-3-yl)-6-fluoro-1H-indazol-4-yl)methanesulfonamide] | < 100 |
| CCC(C1=C(C#N)CCO1)(c1ccc(Cl)cc1)n1ccc2c(NS(C)(=O)=O)cccc21 (stereo not shown) [Compound 147, N-(1-(1-(4-Chlorophenyl)-1-(3-cyano-4,5-dihydrofuran-2-yl)propyl)-1H-indol-4-yl)methane-sulfonamide] | 100 to 500 |
| CCC(C(=O)NCC#N)(c1ccc(Cl)cc1)n1ccc2c(NS(C)(=O)=O)cccc21 (stereo not shown) [Compound 149, 2-(4-chlorophenyl)-N-(cyanomethyl)-2-(4-(methylsulfonamido)-1H-indol-1-yl)butanamide] | < 100 |
| CCn1ncc(C(CC)(c2ccc(Cl)cc2)n2ccc3c(NS(C)(=O)=O)cccc32)n1 (stereo not shown) [Compound 152, N-(1-(1-(4-chlorophenyl)-1-(2-ethyl-2H-1,2,3-triazol-4-yl)propyl)-1H-indol-4-yl)methanesulfonamide] | < 100 |
| CCC(C(=O)OC)(c1ccc(Cl)cc1)n1ccc2c(CCS(C)(=O)=O)cccc21 (stereo not shown) [Compound 153, Methyl 2-(4-chlorophenyl)-2-(4-(2-(methylsulfonyl)ethyl)-1H-indol-1-yl)butanoate] | < 100 |
| CCC(c1ccc(Cl)cc1)(n1ccc2c(NS(C)(=O)=O)cccc21)C1(O)CC1 (stereo not shown) [Compound 154, N-(1-(1-(4-chlorophenyl)-1-(1-hydroxycyclopropyl)propyl)-1H-indol-4-yl)methanesulfonamide] | < 100 |
| COC(=O)C(CCF)(c1ccc(Cl)cc1)n1ccc2c(NS(C)(=O)=O)cccc21 (stereo not shown) [Compound 156, methyl 2-(4-chlorophenyl)-4-fluoro-2-(4-(methylsulfonamido)-1H-indol-1-yl)butanoate] | < 100 |
| CCC(c1ccc(Cl)cc1)(c1nc(C(N)=O)no1)n1ncc2c(NS(C)(=O)=O)cccc21 (stereo not shown) [Compound 157, 5-(1-(4-chlorophenyl)-1-(4-(methylsulfonamido)-1H-indazol-1-yl)propyl)-1,2,4-oxadiazole-3-carboxamide] | 100 to 500 |
| CCC(c1ccc(Cl)cc1)(c1nc(C#N)no1)n1ncc2c(NS(C)(=O)=O)cccc21 (stereo not shown) [Compound 158, N-(1-(1-(4-chlorophenyl)-1-(3-cyano-1,2,4-oxadiazol-5-yl)propyl)-1H-indazol-4-yl)methane sulfonamide] | < 100 |
| CCC(CC(F)(F)F)(c1ccc(Cl)cc1)n1ncc2c(NS(C)(=O)=O)cccc21 (stereo not shown) [Compound 159, N-(1-(3-(4-chlorophenyl)-1,1,1-trifluoropentan-3-yl)-1H-indazol-4-yl)methanesulfonamide] | < 100 |
| CCC(CCOS(C)(=O)=O)(c1ccc(Cl)cc1)n1ccc2c(NS(C)(=O)=O)cccc21 (stereo not shown) [Compound 164, 3-(4-Chlorophenyl)-3-(4-(methylsulfonamido)-1H-indol-1-yl)pentyl methanesulfonate] | < 100 |
| CCC(CCOC)(c1ccc(Cl)cc1)n1ccc2c(NS(C)(=O)=O)cccc21 (stereo not shown) [Compound 165, N-(1-(3-(4-Chlorophenyl)-1-methoxypentan-3-yl)-1H-indol-4-yl)methanesulfonamide] | < 100 |
| CCC(CCSC)(c1ccc(Cl)cc1)n1ccc2c(NS(C)(=O)=O)cccc21 (stereo not shown) [Compound 166, N-(1-(3-(4-chlorophenyl)-1-(methylthio)pentan-3-yl)-1H-indol-4-yl)methanesulfonamide] | < 100 |
| CCC(CCC(=O)OC)(c1ccc(Cl)cc1)n1ccc2c(NS(C)(=O)=O)cccc21 (stereo not shown) [Compound 167, Methyl 4-(4-chlorophenyl)-4-(4-(methylsulfonamido)-1H-indol-1-yl)hexanoate] | < 100 |
| CCC(CCC(=O)OC)(c1ccc(Cl)cc1)n1ncc2c(NS(C)(=O)=O)cccc21 (stereo not shown) [Compound 168, methyl 4-(4-chlorophenyl)-4-(4-(methylsulfonamido)-1H-indazol-1-yl)hexanoate] | < 100 |

Source: patent publication US8933113B2 (Merck Sharp & Dohme Corp., priority 2011, dated 2015)
